Measurements taken from BindingDB's records for doi:10.7270/Q2S180X7 (Vanderbilt Screening Center For Gpcrs, Ion Channels and …, 2009).

Biological target: T1, Muscarinic acetylcholine receptor M5 (Homo sapiens, UniProt P08912)
T1 sequence (P08912 whole entry): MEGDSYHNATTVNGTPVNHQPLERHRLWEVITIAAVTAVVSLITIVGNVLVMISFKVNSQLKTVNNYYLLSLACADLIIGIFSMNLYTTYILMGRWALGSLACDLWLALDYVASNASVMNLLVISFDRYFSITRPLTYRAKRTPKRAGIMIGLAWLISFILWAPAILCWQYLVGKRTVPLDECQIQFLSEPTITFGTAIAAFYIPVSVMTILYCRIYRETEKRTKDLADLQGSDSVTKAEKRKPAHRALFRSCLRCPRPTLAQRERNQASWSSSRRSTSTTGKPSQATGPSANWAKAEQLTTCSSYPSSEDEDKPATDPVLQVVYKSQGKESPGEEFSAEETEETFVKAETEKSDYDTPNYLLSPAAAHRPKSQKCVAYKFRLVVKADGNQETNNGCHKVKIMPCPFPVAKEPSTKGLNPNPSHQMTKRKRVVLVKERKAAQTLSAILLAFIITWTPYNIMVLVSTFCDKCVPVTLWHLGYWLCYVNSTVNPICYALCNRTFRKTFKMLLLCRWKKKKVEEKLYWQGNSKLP
Experiment: binding competition at muscarinic M5 – biochemical, [3H]N-methylscopolamine (AID 2192)
Conditions: inactive by the depositor's call

**Q.** For `COc1ccc(CN2C(=O)C(=O)c3cc(OC(F)(F)F)ccc32)cc1` [VU0238429], which EC50 is on record?
**A.** 1710 nM
